From patent US20110269718A1, “PHARMACEUTICAL COMPOSITION CONTAINING MALATHION AND VOLATILE CYCLIC SILICONE” (priority 2010, published 2011)

Experiments:
[1] = Stability of malathion compositions, degradation measured by HPLC; format: physicochemical
Experimental: The inventors measured malathion degradation by HPLC. The HPLC method was reverse-phase HPLC with UV detection (210 nm). The column used is an xTERRA C18 with a water/acetonitrile gradient and a flow rate of 0.6 ml/min. The malathion compositions tested comprise either malathion on its own, or a composition of 50% malathion and 50% isopropanol, or a composition of 50% malathion and 50% polydimethylcyclosiloxane, or a composition of 33% malathion with 33% isopropanol and 33% polydimethylcyclosiloxane. These compositions also contain excipients such as povidone as viscosity agent.
The stability of these compositions was assessed for 114 hours at 60° Celsius (Table 1).

lice = assay: Pediculicidal activity of volatile silicone oil itself (stated, no method); format: in vivo, Pediculus humanus var capitis
nits = assay: Nit-killing activity of volatile silicone oil itself (stated, no method); format: in vivo, Pediculus humanus var capitis

Row | Compound | Malathion content (%) ([1]; T0) | Malathion content (%) ([1]; T 72 hrs 60° C.) | Malathion loss (%) ([1]; T 72 hrs 60° C.) | Malathion content (%) ([1]; T 114 hrs 60° C.) | Malathion loss (%) ([1]; T 114 hrs 60° C.) | pediculicidal activity (lice) [%] | nit-killing activity (nits) [%]
1 | CCOC(=O)CC(SP(=S)(OC)OC)C(=O)OCC (stereo not shown) [Malathion alone, malathion] | 100.90 | 100.3 | (−0.1) % | 91 | (−9.8) % | – | –
2 | C[Si]1(C)O[Si](C)(C)O[Si](C)(C)O[Si](C)(C)O[Si](C)(C)O1 [decamethylcyclopentasiloxane] | – | – | – | – | – | 100 | ~70
